According to ChEMBL document CHEMBL4043168, “The design and SAR of a novel series of 2-aminopyridine based LRRK2 inhibitors” (Bioorg Med Chem Lett, 2017):

Key:
[1] = molecular target: Calcium/calmodulin-dependent protein kinase type II subunit alpha (Homo sapiens) (UniProt Q9UQM7); experiment: Inhibition of CaMK2a labeling at conserved Lys2 (DLKPENLLLASK) in human PBMC at 1 uM
[2] = molecular target: Calcium/calmodulin-dependent protein kinase type II subunit delta (Homo sapiens) (UniProt Q13557); experiment: Inhibition of CaMK2d labeling at conserved Lys2 (DLKPENLLLASK) in human PBMC at 1 uM
[3] = molecular target: Tyrosine-protein kinase JAK2 (Homo sapiens) (UniProt O60674); experiment: Inhibition of JAK2 domain2 activation Loop (IGDFGLTKVLPQDKEYYK) in human PBMC at 1 uM
[4] = molecular target: T1, Serine/threonine-protein kinase LATS1 (Homo sapiens) (UniProt O95835); experiment: Inhibition of LATS1 conserved Lys1 (ALYATKTLR) in human PBMC at 1 uM
T1 sequence (whole entry): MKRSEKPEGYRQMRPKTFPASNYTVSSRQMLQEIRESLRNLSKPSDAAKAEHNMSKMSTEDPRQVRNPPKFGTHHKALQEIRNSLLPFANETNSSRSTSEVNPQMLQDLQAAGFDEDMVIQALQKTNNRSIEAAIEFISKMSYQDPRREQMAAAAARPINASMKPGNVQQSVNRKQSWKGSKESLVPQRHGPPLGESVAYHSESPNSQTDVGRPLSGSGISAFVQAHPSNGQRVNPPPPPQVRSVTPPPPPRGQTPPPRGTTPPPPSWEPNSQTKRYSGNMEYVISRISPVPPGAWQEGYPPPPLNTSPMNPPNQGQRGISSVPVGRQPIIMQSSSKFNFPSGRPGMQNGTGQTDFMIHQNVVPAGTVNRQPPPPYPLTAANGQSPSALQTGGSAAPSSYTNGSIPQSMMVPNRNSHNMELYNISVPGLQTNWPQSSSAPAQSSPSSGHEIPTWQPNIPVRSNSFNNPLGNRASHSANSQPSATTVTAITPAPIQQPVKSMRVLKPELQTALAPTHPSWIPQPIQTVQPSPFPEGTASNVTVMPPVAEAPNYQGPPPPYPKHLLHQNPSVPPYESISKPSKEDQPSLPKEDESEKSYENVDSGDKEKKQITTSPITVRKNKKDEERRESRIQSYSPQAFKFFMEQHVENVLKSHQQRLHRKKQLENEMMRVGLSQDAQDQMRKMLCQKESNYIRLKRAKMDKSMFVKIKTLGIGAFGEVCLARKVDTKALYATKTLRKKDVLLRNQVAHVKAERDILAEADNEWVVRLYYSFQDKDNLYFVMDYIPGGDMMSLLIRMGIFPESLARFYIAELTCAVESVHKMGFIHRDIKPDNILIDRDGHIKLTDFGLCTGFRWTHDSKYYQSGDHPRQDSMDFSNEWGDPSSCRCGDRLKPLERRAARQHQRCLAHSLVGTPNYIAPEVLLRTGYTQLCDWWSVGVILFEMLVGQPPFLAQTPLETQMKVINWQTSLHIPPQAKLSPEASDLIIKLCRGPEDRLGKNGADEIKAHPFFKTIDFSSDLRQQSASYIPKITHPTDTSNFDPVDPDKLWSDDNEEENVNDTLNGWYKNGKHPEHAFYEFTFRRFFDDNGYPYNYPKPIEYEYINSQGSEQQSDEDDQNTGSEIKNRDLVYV

[5] = molecular target: Ribosomal protein S6 kinase alpha-5 (Homo sapiens) (UniProt O75582); experiment: Inhibition of MSK1 domain1 conserved Lys2 (DIKLENILLDSNGHVVLTDFGLSK) in human PBMC at 1 uM
[6] = molecular target: Serine/threonine-protein kinase Nek8 (Homo sapiens) (UniProt Q86SG6); experiment: Inhibition of NEK8 conserved Lys2 (DLKTQNILLDK) in human PBMC at 1 uM
[7] = molecular target: Protein kinase C alpha type (Homo sapiens) (UniProt P17252); experiment: Inhibition of PKCa conserved Lys2 (DLKLDNVMLDSEGHIK) in human PBMC at 1 uM
[8] = molecular target: Serine/threonine-protein kinase WNK1 (Homo sapiens) (UniProt Q9H4A3); experiment: Inhibition of Wnk1 ATP binding site (GSFKTVYK) in human PBMC at 1 uM
[9] = molecular target: Cyclin-dependent kinase 5 (Homo sapiens) (UniProt Q00535); experiment: Inhibition of CDK5 labeling at conserved Lys2 (DLKPQNLLINR) in human PBMC at 0.1 uM
[10] = molecular target: Mitogen-activated protein kinase 10 (Homo sapiens) (UniProt P53779); experiment: Inhibition of JNK3 conserved Lys2 (DLKPSNIVVK) in human PBMC at 0.1 uM
[11] = molecular target: Tyrosine-protein kinase Lyn (Homo sapiens) (UniProt P07948); experiment: Inhibition of LYN activation Loop (EGAKFPIKWTAPEAINFGCFTIK) in human PBMC at 0.1 uM
[12] = molecular target: Dual specificity mitogen-activated protein kinase kinase 2 (Homo sapiens) (UniProt P36507); experiment: Inhibition of MAP2K2 conserved Lys2 (IMHRDVKPSNILVNSR) in human PBMC at 0.1 uM
[13] = molecular target: Serine/threonine-protein kinase Nek6 (Homo sapiens) (UniProt Q9HC98); experiment: Inhibition of NEK6 conserved Lys2 (DIKPANVFITATGVVK) in human PBMC at 0.1 uM
[14] = molecular target: Phosphatidylinositol 3-kinase catalytic subunit type 3 (Homo sapiens) (UniProt Q8NEB9); experiment: Inhibition of PIK3C3 ATP binding site (TEDGGKYPVIFKHGDDLR) in human PBMC at 0.1 uM
[15] = molecular target: Phosphatidylinositol 5-phosphate 4-kinase type-2 alpha (Homo sapiens) (UniProt P48426); experiment: Inhibition of PIP4K2A ATP binding site (AKELPTLKDNDFINEGQK) in human PBMC at 0.1 uM
[16] = molecular target: Serine/threonine-protein kinase SMG1 (Homo sapiens) (UniProt Q96Q15); experiment: Inhibition of SMG1 ATP binding site (SYPYLFKGLEDLHLDER) in human PBMC at 0.1 uM

Sequence of Serine/threonine-protein kinase WNK1 (Homo sapiens) (Q9H4A3 whole entry, looked up): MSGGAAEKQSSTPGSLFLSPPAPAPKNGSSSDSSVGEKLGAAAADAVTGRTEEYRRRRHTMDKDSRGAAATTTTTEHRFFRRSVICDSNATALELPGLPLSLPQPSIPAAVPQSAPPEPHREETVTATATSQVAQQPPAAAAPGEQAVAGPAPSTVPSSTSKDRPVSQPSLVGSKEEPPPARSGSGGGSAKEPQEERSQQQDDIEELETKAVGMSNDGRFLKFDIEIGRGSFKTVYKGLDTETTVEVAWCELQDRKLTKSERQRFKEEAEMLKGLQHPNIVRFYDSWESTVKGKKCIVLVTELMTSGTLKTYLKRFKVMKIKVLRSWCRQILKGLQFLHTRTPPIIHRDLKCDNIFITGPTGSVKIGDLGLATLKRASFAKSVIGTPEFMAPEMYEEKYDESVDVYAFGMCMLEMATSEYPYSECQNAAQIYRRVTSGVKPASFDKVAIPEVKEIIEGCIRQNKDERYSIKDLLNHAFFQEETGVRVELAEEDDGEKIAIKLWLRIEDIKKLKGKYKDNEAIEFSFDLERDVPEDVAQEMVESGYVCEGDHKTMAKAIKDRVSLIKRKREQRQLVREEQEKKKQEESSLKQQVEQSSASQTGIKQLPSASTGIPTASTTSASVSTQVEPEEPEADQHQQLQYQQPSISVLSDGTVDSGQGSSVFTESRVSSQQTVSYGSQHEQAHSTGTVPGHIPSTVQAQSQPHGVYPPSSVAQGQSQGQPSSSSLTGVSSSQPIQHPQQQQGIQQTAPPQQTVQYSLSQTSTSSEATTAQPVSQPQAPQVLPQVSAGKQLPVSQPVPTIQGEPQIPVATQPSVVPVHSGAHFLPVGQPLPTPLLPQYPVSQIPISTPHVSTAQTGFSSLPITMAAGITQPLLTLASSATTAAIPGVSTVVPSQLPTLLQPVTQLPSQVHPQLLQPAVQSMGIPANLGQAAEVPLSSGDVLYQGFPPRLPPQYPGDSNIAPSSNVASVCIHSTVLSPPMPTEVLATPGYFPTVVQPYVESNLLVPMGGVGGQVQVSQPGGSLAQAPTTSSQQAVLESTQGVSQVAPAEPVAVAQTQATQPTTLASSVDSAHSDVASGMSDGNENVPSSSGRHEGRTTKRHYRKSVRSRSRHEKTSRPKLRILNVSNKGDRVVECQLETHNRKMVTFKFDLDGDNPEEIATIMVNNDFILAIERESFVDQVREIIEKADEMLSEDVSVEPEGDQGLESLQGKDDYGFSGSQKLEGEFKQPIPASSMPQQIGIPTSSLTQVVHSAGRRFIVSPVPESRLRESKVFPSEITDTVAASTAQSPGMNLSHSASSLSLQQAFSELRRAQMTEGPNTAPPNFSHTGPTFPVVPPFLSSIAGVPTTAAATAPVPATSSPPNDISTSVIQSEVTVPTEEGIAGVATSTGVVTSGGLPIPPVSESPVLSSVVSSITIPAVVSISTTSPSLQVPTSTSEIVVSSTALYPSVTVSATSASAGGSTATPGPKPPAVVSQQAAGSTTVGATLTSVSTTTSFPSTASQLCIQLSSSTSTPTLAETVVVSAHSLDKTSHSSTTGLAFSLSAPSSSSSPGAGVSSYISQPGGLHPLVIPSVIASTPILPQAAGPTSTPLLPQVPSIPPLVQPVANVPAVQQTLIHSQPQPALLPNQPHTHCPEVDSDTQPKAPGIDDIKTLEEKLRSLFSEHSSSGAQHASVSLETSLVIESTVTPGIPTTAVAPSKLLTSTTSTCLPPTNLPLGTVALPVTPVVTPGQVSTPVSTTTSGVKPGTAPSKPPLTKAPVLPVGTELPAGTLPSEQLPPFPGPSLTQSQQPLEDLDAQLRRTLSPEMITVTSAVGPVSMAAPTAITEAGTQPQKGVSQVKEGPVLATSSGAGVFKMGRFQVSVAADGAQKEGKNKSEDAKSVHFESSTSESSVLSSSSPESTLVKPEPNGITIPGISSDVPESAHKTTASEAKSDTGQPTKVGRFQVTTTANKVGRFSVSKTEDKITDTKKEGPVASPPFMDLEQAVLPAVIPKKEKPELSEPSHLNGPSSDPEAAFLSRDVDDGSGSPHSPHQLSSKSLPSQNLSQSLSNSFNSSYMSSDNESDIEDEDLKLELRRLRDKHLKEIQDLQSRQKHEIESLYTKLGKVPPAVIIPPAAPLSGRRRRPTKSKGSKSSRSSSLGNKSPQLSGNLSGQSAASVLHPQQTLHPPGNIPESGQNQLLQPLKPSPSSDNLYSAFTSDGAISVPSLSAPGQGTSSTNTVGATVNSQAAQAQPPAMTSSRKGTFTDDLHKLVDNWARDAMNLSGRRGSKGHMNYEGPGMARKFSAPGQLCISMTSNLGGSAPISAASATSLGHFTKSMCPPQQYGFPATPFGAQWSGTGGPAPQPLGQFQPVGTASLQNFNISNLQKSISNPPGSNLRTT
Sequence of Calcium/calmodulin-dependent protein kinase type II subunit alpha (Homo sapiens) (Q9UQM7 whole entry): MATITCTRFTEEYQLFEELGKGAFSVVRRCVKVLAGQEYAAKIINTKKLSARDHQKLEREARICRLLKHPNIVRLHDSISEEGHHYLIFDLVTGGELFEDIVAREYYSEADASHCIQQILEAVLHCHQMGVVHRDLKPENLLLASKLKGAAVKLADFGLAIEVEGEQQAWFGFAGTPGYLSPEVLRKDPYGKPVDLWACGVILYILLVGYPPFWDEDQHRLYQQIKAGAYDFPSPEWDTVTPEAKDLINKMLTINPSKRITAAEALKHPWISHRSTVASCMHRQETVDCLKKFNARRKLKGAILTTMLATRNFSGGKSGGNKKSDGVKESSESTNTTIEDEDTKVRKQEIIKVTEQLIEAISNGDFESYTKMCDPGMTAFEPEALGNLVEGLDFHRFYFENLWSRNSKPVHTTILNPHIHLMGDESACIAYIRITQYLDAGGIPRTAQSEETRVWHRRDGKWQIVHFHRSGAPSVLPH
Sequence of Phosphatidylinositol 3-kinase catalytic subunit type 3 (Homo sapiens) (Q8NEB9 whole entry): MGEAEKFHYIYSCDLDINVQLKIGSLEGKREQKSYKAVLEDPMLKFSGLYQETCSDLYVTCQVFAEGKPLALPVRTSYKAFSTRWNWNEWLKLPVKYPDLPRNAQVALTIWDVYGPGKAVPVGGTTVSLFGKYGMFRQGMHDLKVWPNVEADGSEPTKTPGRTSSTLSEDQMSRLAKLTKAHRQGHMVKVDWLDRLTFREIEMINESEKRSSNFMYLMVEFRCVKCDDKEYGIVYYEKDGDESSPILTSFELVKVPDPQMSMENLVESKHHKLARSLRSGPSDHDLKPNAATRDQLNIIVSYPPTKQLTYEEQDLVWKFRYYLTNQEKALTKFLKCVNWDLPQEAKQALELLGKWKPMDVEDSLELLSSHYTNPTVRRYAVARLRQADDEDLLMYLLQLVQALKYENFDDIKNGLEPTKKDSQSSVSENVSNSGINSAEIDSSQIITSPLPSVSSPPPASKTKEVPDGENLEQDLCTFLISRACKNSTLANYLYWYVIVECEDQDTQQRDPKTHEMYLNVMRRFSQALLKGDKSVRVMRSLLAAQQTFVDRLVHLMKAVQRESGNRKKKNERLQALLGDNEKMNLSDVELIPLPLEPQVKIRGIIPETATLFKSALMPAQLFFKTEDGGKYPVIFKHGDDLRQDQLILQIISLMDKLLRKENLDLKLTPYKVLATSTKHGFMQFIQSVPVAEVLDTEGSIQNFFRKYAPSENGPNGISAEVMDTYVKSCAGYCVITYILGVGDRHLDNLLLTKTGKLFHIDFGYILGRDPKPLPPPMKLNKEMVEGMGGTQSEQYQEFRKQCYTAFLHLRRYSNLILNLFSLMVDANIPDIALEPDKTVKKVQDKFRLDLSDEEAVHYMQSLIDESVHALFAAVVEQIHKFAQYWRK
Sequence of Dual specificity mitogen-activated protein kinase kinase 2 (Homo sapiens) (P36507 whole entry): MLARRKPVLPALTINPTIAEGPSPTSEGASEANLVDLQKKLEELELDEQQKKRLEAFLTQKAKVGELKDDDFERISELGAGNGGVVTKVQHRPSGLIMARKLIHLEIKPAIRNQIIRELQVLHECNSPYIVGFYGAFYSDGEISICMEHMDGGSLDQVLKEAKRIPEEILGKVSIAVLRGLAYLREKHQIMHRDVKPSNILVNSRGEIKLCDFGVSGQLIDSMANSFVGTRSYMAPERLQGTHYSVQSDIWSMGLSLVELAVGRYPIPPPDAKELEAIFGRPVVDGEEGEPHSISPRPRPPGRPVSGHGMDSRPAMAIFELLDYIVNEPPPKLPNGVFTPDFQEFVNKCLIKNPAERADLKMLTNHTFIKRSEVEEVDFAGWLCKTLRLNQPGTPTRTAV
Sequence of Serine/threonine-protein kinase Nek8 (Homo sapiens) (Q86SG6 whole entry): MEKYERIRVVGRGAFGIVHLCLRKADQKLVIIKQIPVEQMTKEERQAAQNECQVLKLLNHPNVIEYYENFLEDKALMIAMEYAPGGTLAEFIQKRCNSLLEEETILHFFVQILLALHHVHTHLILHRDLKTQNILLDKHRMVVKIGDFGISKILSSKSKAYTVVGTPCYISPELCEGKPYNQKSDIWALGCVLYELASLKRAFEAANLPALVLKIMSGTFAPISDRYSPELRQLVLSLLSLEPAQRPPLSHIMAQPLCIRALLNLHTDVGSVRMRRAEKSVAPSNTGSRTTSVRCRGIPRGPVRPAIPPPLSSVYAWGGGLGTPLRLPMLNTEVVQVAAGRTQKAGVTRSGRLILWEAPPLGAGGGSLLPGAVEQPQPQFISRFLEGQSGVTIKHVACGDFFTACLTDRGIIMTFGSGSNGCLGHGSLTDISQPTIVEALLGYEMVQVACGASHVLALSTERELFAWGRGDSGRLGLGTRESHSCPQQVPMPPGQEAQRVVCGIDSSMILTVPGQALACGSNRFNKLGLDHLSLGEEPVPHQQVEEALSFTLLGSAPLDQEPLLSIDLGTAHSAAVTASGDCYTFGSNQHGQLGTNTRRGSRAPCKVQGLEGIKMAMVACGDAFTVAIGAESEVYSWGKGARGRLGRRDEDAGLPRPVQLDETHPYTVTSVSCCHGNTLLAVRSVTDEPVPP

## CC(C)n1cc(-c2cc(-c3ccc(CN4CCOCC4)cc3)cnc2N)nn1
[1]
  inhibition: -0.4%
[2]
  inhibition: -0.4%
[3]
  inhibition: 5.2%
[4]
  inhibition: 30.1%
[5]
  inhibition: 9.8%
[6]
  inhibition: 17.1%
[7]
  inhibition: -7.4%
[8]
  inhibition: 14.2%
[9]
  inhibition: -3.3%
[10]
  inhibition: 25.1%
[11]
  inhibition: 6.1%
[12]
  inhibition: -5.6%
[13]
  inhibition: -4.8%
[14]
  inhibition: 14.1%
[15]
  inhibition: 10.3%
[16]
  inhibition: 12.7%
